Data as given in patent publication US6503939B2, “Combination regimens using 3,3-substituted indoline derivatives” (Wyeth, priority 1999, dated 2003).

melting point: 240 to 241 °C
Structure (SMILES): CC1Nc2ccc(-c3cccc([N+](=O)[O-])c3)cc2C1(C)C.Cl (stereo not shown)
